Data from patent US10906938B2, “Cell epitopes and combination of cell epitopes for use in the immunotherapy of myeloma and other cancers” (Immatics Biotechnologies GmbH, priority 2015, dated 2021).

Legend:
Format in all cases: cell-based, human
[1] = tested on: CD8+ T cells from one healthy individual; assay: aAPC priming and tetramer staining, CD8+ T cells of a healthy individual
Method: (§1) For the generation of artificial antigen presenting cells (aAPC), 4×10^6 streptavidincoated polystyrene particles (Bangs Laboratories) per ml were resuspended in PBE (PBS/BSA/ETDA, Gibco/Sigma Aldrich/Lonza) containing 200 pM biotinylated MHCpeptide monomer and 20 nM anti-human biotinylated CD28 antibody and incubated at room temperature for 30 min. After washing, the aAPCs were stored at 4° C. prior to use. CD8^+ T cells from MM patients and HV were enriched by positive selection using magnetic cell sorting (Miltenyi Biotec). Stimulations were initiated in 96-well plates with 1×10^6 T cells plus 2×10^5 aAPCs in 200 μl T-cell medium complemented with 5 ng/ml human IL-12 (PromoKine). […] IL-2 (R&D Systems) were added on day 5. aAPC stimulation was repeated on day 10, for a total of 3 cycles.
(§2) The frequency of peptide-specific CD8^+ T cells was determined on a FACS Canto II cytometer (BD Bioscience) by staining with anti-CD8 (Biolegend) and HLA:peptidetetramer-PE as described previously. Staining with tetramers containing the CMV pp65 A*02 peptide NLVPMVATV (SEQ ID No. 236) served as positive control, tetramers containing irrelevant, non-primed A*02 restricted control peptides as negative controls. […]

[2] = tested on: PBMC obtained from MM patients; assay: 12-day recall IFNγ ELISPOT with PBMC of MM patients; conditions: 12-day recall IFNγ ELISPOT, PBMC of MM patients, HLA class I peptide
Method: PBMC from MM patients and HVs were cultured as described previously. In brief, for CD8^+ T-cell stimulation, PBMC were pulsed with 1 μg/ml per peptide and cultured for 12 days adding IL-4 and IL-7 on day 0 and 1 as well as IL-2 on day 3, 5, 7 and 9. HLA-A*02 (KLFEKVKEV) (SEQ ID NO. 231) and B*07 (KPSEKIQVL) (SEQ ID NO. 232) restricted control peptides derived from benign tissues (HV-exclusive HLA ligands) served as negative control. Peptide-stimulated PBMC were analyzed by ELISPOT assays on day 12. For CD4^+ T-cell stimulation, culture was performed as described for CD8^+ T cells except for 2 modifications: pulsing was carried out with 10 μg/ml of HLA class II peptide and no IL-4 or IL-7 was added.
IFNγ ELISPOT assays were carried out as described previously. In brief, 96-well nitrocellulose plates (Millipore) were coated with […] IFNγ mAb (Mabtech) and incubated over night at 4° C. Plates were blocked with 10% human serum for 2 h at 37° C. 2.5×10^5 cells/well of pre-stimulated PBMC were pulsed with 1 μg/ml (HLA class I) or 2.5 μg/ml (HLA class II) peptide and incubated for 24-26 h. Readout was performed according to manufacturer's instructions. PHA was used as positive control. HLA-A*02 (KLFEKVKEV) (SEQ ID NO. 231) and B*07 (KPSEKIQVL) (SEQ ID NO. 232) restricted control peptides derived from benign tissues (HV-exclusive HLA ligands) served as negative control. Spots were counted using an ImmunoSpot S5 analyzer (CTL). T cell responses were considered to be positive when >10 spots/well were counted and the mean spot count per well was at least 3-fold higher than the mean number of spots in the negative control wells (according to the cancer immunoguiding program (CIP) guidelines).

[3] = tested on: CD8+ T cells from one MM patient; assay: aAPC priming and tetramer staining, CD8+ T cells of an MM patient; conditions: T cells from an MM patient without previous T-cell reactivity for P2
Method: as §1, §2

SLLEQGLVEA (listed as Homo sapiens) [SEQ ID NO: 177]
P2-tetramer positive CD8+ T cells after in vitro priming ([1]; HV-derived CD8+ T cells, 3 cycles of aAPC priming): 0.403% | tetramer-positive T-cell populations ex vivo ([1]; ex vivo, without priming): ≤ 0.1% | specific T-cell recognition, MM patients positive/tested [2]: 1/8 | specific T-cell recognition, share of MM patients [2]: 13% | P2-tetramer positive CD8+ T cells after priming [3]: 0.236%
